Activity calls are given as the source filed them. The calls are words filed in the database; no cut-off is given here.
How the values were obtained:
MOVAS-1 [1] = test: Induction proliferation of mouse MOVAS-1 assessed as increase in number of EdU-positive cells using conditioned medium of mouse C2C12 cells with silenced HIF-1alpha treated at 30 uM under hyperglycemic condition for 12 hrs followed by hypoxia for 24 hrs by EdU-incorporation assay; assay type: functional, cell-based; conditions: time 36.0 hrs
C2C12 [2] = test: Upregulation of CXCL17 protein expression in mouse C2C12 cells at 30 uM by Western blot analysis; assay type: functional, cell-based
Mus musculus [3] = test: Antidiabetic activity in diabetic HLI C57BL/6 mouse model assessed as effect on blood glucose level at 30 mg/kg administered intramuscularly measured after 3 days; assay type: functional, organism-based; conditions: time 3.0 day
C2C12 [4] = test: Reversal of hyperglycemia-induced PDGF-BB protein level reduction in mouse C2C12 cells measured at 30 uM by Western blot analysis; assay type: functional, cell-based
C2C12 [5] = test: Apoptotic rate in hyperglycemia-treated mouse C2C12 cells assessed as necrotic cells at 15 uM by AnnexinV-FITC/PI staining based flow cytometric analysis (reference value: 0.56 %); assay type: functional
C2C12 [6] = test: Reversal of cell migration in mouse C2C12 cells at 30 uM under hyperglycemic condition incubated for 24 hrs by crystal violet dye based transwell chamber assay; assay type: functional
C2C12 [7] = test: Induction of proliferation of hyperglycemia-induced mouse C2C12 cell death assessed as increase in number of EdU-positive cells at 7.5 to 300 uM pretreated with compound under hyperglycemia condition for 12 hr followed by hypoxia for 24 hrs; assay type: functional, cell-based; conditions: dose 7.5-300 µM, time 36.0 hrs
HUVEC [8] = test: Antiangiogenesis activity in human HUVEC cells assessed as suppression of cell migration using conditioned medium of mouse C2C12 cells with silenced HIF-1alpha treated at 30 uM under hyperglycemic condition for 12 hrs followed by hypoxia for 24 hrs in presence of PDGF-BB inhibitor CP868596 by crystal violet dye based transwell assay; assay type: functional; conditions: time 36.0 hrs
C2C12 [9] = test: Upregulation of FGF1protein expression in mouse C2C12 cells at 30 uM by Western blot analysis; assay type: functional, cell-based
Mus musculus [10] = test: Angiogenic activity in diabetic HLI C57BL/6 mouse model assessed as HIF-1alpha protein expression at 30 mg/kg, im administered for 21 days followed by surgery by Western blot analysis; assay type: functional, organism-based; conditions: time 21.0 day
Mus musculus [11] = test: Angiogenic activity in diabetic HLI C57BL/6 mouse model assessed as increase in number of alpha-SMA-positive cells at 30 mg/kg, im administered for 21 days followed by surgery by immunofluorescence analysis; assay type: functional, organism-based; conditions: time 21.0 day
Mus musculus [12] = test: Antidiabetic activity in diabetic HLI C57BL/6 mouse model assessed as morphological changes at 30 mg/kg administered intramuscularly; assay type: functional, organism-based
C2C12 [13] = test: Upregulation of HGF protein expression in mouse C2C12 cells at 30 uM by Western blot analysis; assay type: functional, cell-based
MOVAS-1 [14] = test: Angiogenesis activity in mouse MOVAS-1 cells assessed as suppression of cell migration using conditioned medium of mouse C2C12 cells treated at 30 uM under hyperglycemic condition for 12 hrs followed by hypoxia for 24 hrs by crystal violet dye based transwell assay; assay type: functional; conditions: time 36.0 hrs
C2C12 [15] = test: Apoptotic rate in mouse C2C12 cells with silenced HIF-1alpha assessed as early apoptotic cells at 30 uM by AnnexinV-FITC/PI staining based FACS analysis (reference value: 4.02 %); assay type: functional
C2C12 [16] = test: Reversal of hyperglycemia-induced PDGF-BB protein level reduction in mouse C2C12 cells measured at 30 uM by ELISA; assay type: functional, cell-based
C2C12 [17] = test: Induction proliferation of mouse C2C12 cells assessed as suppression of apoptotic rate at 30 uM under normoglycemic condition by Annexin V/PI staining based Flowcytometry method; assay type: functional, cell-based
C2C12 [18] = test: Induction of cell migration in mouse C2C12 cells at 30 uM under hyperglycemic condition incubated for 24 hrs by crystal violet dye based transwell chamber assay; assay type: functional
C2C12 [19] = test: Angiogenic activity in mouse C2C12 cells assessed as reversal of hyperglycemia-induced reduction in total cell number at 30 uM measured after 24 to 36 hrs by EdU-incorporation assay; assay type: functional, cell-based; conditions: time 24-36 hrs
C2C12 [20] = test: Angiogenic activity in mouse C2C12 cells assessed as reversal of hyperglycemia-induced reduction in total cell number at 100 uM measured after 24 to 36 hrs by EdU-incorporation assay; assay type: functional, cell-based; conditions: time 24-36 hrs
HUVEC [21] = test: Angiogenesis activity in human HUVEC cells assessed as increase of cell migration using conditioned medium of mouse C2C12 cells with silenced HIF-1alpha treated at 30 uM under hyperglycemic condition for 12 hrs followed by hypoxia for 24 hrs by crystal violet dye based transwell assay; assay type: functional; conditions: time 36.0 hrs
[22] = Toxicity in diabetic HLI C57BL/6 mouse model assessed as lung pathology at 30 mg/kg, IM administered by HE staining based assay; assay type: organism-based; conditions: in vivo
C2C12 [23] = test: Apoptotic rate in hyperglycemia-treated mouse C2C12 cells assessed as viable cells at 30 uM by AnnexinV-FITC/PI staining based flow cytometric analysis (reference value: 81.90 %); assay type: functional; conditions: read-out: Activity
C2C12 [24] = test: Angiogenic activity in mouse C2C12 cells assessed as reversal of hyperglycemia-induced reduction in cell number by measuring cell proliferation measured after 12 to 36 hrs; assay type: functional, cell-based
C2C12 [25] = test: Induction proliferation of mouse C2C12 cells assessed as increase in number of EdU-positive cells at 30 uM under normoglycemic condition by EdU-incorporation assay; assay type: functional, cell-based
HUVEC [26] = test: Induction proliferation of human HUVEC cells assessed as increase in number of EdU-positive cells using conditioned medium of mouse C2C12 cells with silenced HIF-1alpha treated at 30 uM under hyperglycemic condition for 12 hrs followed by hypoxia for 24 hrs by EdU-incorporation assay; assay type: functional, cell-based; conditions: time 36.0 hrs
[27] = Dissociation constant, pKa of compound by UV-visible spectrometric method; assay type: physicochemical
C2C12 [28] = test: Upregulation of TNFRSF12A protein expression in mouse C2C12 cells at 30 uM by Western blot analysis; assay type: functional, cell-based
[29] = Permeability coefficient across apical to basolateral side in human Caco-2 cells by HPLC-UV analysis
[30] = Efflux ratio of Apparent permeability across basolateral to apical side over apical to basolateral side in human Caco-2 cells
C2C12 [31] = test: Induction proliferation of mouse C2C12 cells at 30 uM pretreated with compound in hyperglycemia condition for 12 hr followed by hypoxia condition for 24 hrs presence of MeOE2 inhibitor by EdU-incorporation assay; assay type: functional, cell-based; conditions: time 36.0 hrs
[32] = Toxicity in diabetic HLI C57BL/6 mouse model assessed as effect on body weight at 15 to 100 mg/kg, im administered measured after 21 days; assay type: organism-based; conditions: in vivo, 504 h, dose 15-100 mg/kg, time 21 day
C2C12 [33] = test: Angiogenic activity in mouse C2C12 cells assessed as reversal of hyperglycemia-induced reduction in total cell number measured after 12 to 36 hrs; assay type: functional, cell-based
Mus musculus [34] = test: Antidiabetic activity in diabetic HLI C57BL/6 mouse model assessed as PDGF-BB protein expression at 30 mg/kg, im administered for 21 days followed by surgery by Western blot analysis; assay type: functional, organism-based; conditions: time 21.0 day
[35] = Toxicity in diabetic HLI C57BL/6 mouse model assessed as heart pathology at 30 mg/kg, IM administered by HE staining based assay; assay type: organism-based; conditions: in vivo
Mus musculus [36] = test: Angiogenic activity in diabetic HLI C57BL/6 mouse model assessed as increase in number of PECAM-1-positive cells at 30 mg/kg administered intramuscularly for 21 days followed by surgery by immunofluorescence analysis; assay type: functional, organism-based; conditions: time 21.0 day

COc1ccc(Cc2cccc(O[C@@H]3O[C@H](CO)[C@@H](O)[C@H](O)[C@H]3O)c2)cc1
Activity (MOVAS-1 [1]): Active | Activity (C2C12 [2]): Active | Activity (Mus musculus [3]): Active | Activity (C2C12 [4]): Active | Activity (C2C12 [5]): 0.38% | Activity (C2C12 [6]): Active | Activity (C2C12 [7]): Active | Activity (HUVEC [8]): inactive | Activity (C2C12 [9]): Active | Activity (Mus musculus [10]): Active | Activity (Mus musculus [11]): Active | Activity (Mus musculus [12]): Active | Activity (C2C12 [13]): Active | Activity (MOVAS-1 [14]): Active | Activity (C2C12 [15]): 3.18% | Activity (C2C12 [16]): Active | Activity (C2C12 [17]): Active | Activity (C2C12 [18]): Active | Activity (C2C12 [19]): inactive | Activity (C2C12 [20]): inactive | Activity (HUVEC [21]): Active | Activity [22]: Non-Toxic | viability at 30 µM (C2C12 [23]): 93.6% | EC50 (C2C12 [24]): 17.3 µM | Activity (C2C12 [25]): Active | Activity (HUVEC [26]): Active | pKa [27]: > 14 | Activity (C2C12 [28]): Active | Papp A→B [29]: 1.04 ×10⁻⁶ cm/s | efflux ratio [30]: 1.07 | Activity (C2C12 [31]): inactive | Activity [32]: Non-Toxic | EC50 (C2C12 [33]): 12.7 µM | Activity (Mus musculus [34]): Active | Activity [35]: Non-Toxic | Activity (Mus musculus [36]): Active

From ChEMBL document CHEMBL5038635, “Discovery of Salidroside-Derivated Glycoside Analogues as Novel Angiogenesis Agents to Treat Diabetic Hind Limb Ischemia” (J Med Chem, 2022)
